# In PubChem BioAssay AID330 (DTP/NCI, 2004):
# Where “and” joins values, the source holds several entries; their conditions need not be identical. Identical values can stand only once. Toxic doses and inconclusive results are not listed.
# Test system: P388 leukemia ip, CD2F1 mice, survival T/C
# Assay: NCI In Vivo Anticancer Drug Screen. Data for tumor model P388 Leukemia (intraperitoneal) in CD2F1 (CDF1) mice
# Conditions: endpoint: median survival time, higher = longer survival
# Outline: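 Mice carrying the transplanted tumor received test compound or vehicle. Survival was recorded in each group, and the value is the treated-group measurement divided by that of the vehicle-treated control group.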
# [1] = dose: 60.0 mg/kg/injection, schedule: Q01DX005 (ip), vehicle: saline with Tween-80
# [2] = dose: 120.0 mg/kg/injection, schedule: Q01DX005 (ip), vehicle: saline with Tween-80
# [3] = dose: 240.0 mg/kg/injection, schedule: Q01DX005 (ip), vehicle: saline with Tween-80
# [4] = dose: 50.0 mg/kg/injection, schedule: Q01DX009 (ip), vehicle: saline
# [5] = dose: 100.0 mg/kg/injection, schedule: Q01DX009 (ip), vehicle: saline
# [6] = dose: 200.0 mg/kg/injection, schedule: Q01DX009 (ip), vehicle: saline
# [7] = dose: 25.0 mg/kg/injection, schedule: Q01DX009 (ip), vehicle: saline
smiles,measurement,setting,value
Cc1ccc(OP(=O)(Oc2ccc(C)cc2)Oc2ccc(C)cc2)cc1.Cc1ccc(OP(=O)(Oc2ccc(C)cc2)Oc2ccc(C)cc2)cc1.Cc1ccc(OP(=O)(Oc2ccc(C)cc2)Oc2ccc(C)cc2)cc1.Cc1ccc(OP(=O)(Oc2ccc(C)cc2)Oc2ccc(C)cc2)cc1.[Fe+2].[O-][Cl+3]([O-])([O-])O,T/C,"dose: 50.0 mg/kg/injection, schedule: Q01DX001 (ip), vehicle: Klucel (hydroxypropylcellulose) (HPC)",99 % of control
same,T/C,"dose: 100.0 mg/kg/injection, schedule: Q01DX001 (ip), vehicle: Klucel (hydroxypropylcellulose) (HPC)",96 % of control
same,T/C,"dose: 200.0 mg/kg/injection, schedule: Q01DX001 (ip), vehicle: Klucel (hydroxypropylcellulose) (HPC)",99 % of control
CCOc1cc2c(cc1C(CC)c1ccc(OC)cc1)OCO2 (stereo not drawn),T/C,"dose: 50.0 mg/kg/injection, schedule: Q01DX005 (ip), vehicle: Klucel (hydroxypropylcellulose) (HPC)",104 % of control
same,T/C,"dose: 100.0 mg/kg/injection, schedule: Q01DX005 (ip), vehicle: Klucel (hydroxypropylcellulose) (HPC)",104 % of control
same,T/C,"dose: 200.0 mg/kg/injection, schedule: Q01DX005 (ip), vehicle: Klucel (hydroxypropylcellulose) (HPC)",99 % of control
Fc1ccc(C(Nc2nncs2)Nc2nncs2)c(F)c1,T/C,[1],105 % of control
same,T/C,[2],96 % of control
same,T/C,[3],107 % of control
O=C1Nc2ccccc2C12Nc1ccccc1N2,T/C,"dose: 25.0 mg/kg/injection, schedule: Q04DX003 (ip), vehicle: Klucel (hydroxypropylcellulose) (HPC)",108 % of control
same,T/C,"dose: 50.0 mg/kg/injection, schedule: Q04DX003 (ip), vehicle: Klucel (hydroxypropylcellulose) (HPC)",95 % of control
same,T/C,"dose: 100.0 mg/kg/injection, schedule: Q04DX003 (ip), vehicle: Klucel (hydroxypropylcellulose) (HPC)",97 % of control
same,T/C,"dose: 200.0 mg/kg/injection, schedule: Q04DX003 (ip), vehicle: Klucel (hydroxypropylcellulose) (HPC)",90 % of control and 91 % of control
CCc1nc(N)nc(N)c1-c1ccc(N(C)C2CCCCC2)c([N+](=O)[O-])c1,T/C,[1],105 % of control and 106 % of control
same,T/C,[2],115 % of control
same,T/C,[3],103 % of control
same,T/C,"dose: 480.0 mg/kg/injection, schedule: Q01DX005 (ip), vehicle: saline with Tween-80",168 % of control
CC12C=CC(C)(C3C(=O)NC(=O)C31)C1C3C(=O)NC(=O)C3C12 (stereo not drawn),T/C,"dose: 25.0 mg/kg/injection, schedule: Q01DX009 (ip), vehicle: Klucel (hydroxypropylcellulose) (HPC)",106 % of control
same,T/C,"dose: 50.0 mg/kg/injection, schedule: Q01DX009 (ip), vehicle: Klucel (hydroxypropylcellulose) (HPC)",109 % of control
same,T/C,"dose: 100.0 mg/kg/injection, schedule: Q01DX009 (ip), vehicle: Klucel (hydroxypropylcellulose) (HPC)",106 % of control
same,T/C,"dose: 200.0 mg/kg/injection, schedule: Q01DX009 (ip), vehicle: Klucel (hydroxypropylcellulose) (HPC)",109 % of control
COP(=O)(OC)OC.COP(=O)(OC)OC.COP(=O)(OC)OC.COP(=O)(OC)OC.COP(=O)(OC)OC.COP(=O)(OC)OC.[Mn+2].[O-][Cl+3]([O-])([O-])O,T/C,[4],99 % of control and 100 % of control
same,T/C,[5],111 % of control
same,T/C,[6],109 % of control
same,T/C,"dose: 400.0 mg/kg/injection, schedule: Q01DX009 (ip), vehicle: saline",123 % of control
COCCn1c2nc(=O)n(-c3ccccc3)c(=O)c-2nc2c1CCCC2,T/C,[7],100 % of control
same,T/C,[4],93 % of control
same,T/C,[5],94 % of control
same,T/C,[6],116 % of control
Nc1cn(C2CC(O)C(CO)O2)c(=O)[nH]c1=O (stereo not drawn),T/C,[7],106 % of control
same,T/C,[4],105 % of control
same,T/C,[5],105 % of control
same,T/C,[6],105 % of control
COC(=O)/C=C1\C[C@H]2C[C@]3(O)O[C@H](C[C@@H](O)CC(=O)O[C@@H]([C@@H](C)O)C[C@@H]4C/C(=C\C(=O)OC)[C@H](OC(C)=O)[C@@](O)(O4)C(C)(C)/C=C/[C@@H](C1)O2)C[C@H](OC(=O)CC(C)C)C3(C)C,T/C,"dose: 3.0 micrograms/kg/injection, schedule: Q01DX009 (ip), vehicle: saline + alcohol",111 % of control
same,T/C,"dose: 5.0 micrograms/kg/injection, schedule: Q01DX009 (ip), vehicle: saline + alcohol",113 % of control
CN(C)CC1(C)C(=O)N(C)C(=O)N(C2CCCCC2)C1=O (stereo not drawn),T/C,"dose: 25.0 mg/kg/injection, schedule: Q01DX009 (ip), vehicle: saline with Tween-80",100 % of control
same,T/C,[7],100 % of control
same,T/C,"dose: 50.0 mg/kg/injection, schedule: Q01DX009 (ip), vehicle: saline with Tween-80",107 % of control
same,T/C,[4],104 % of control and 105 % of control
same,T/C,"dose: 100.0 mg/kg/injection, schedule: Q01DX009 (ip), vehicle: saline with Tween-80",107 % of control
same,T/C,[5],113 % of control
same,T/C,"dose: 200.0 mg/kg/injection, schedule: Q01DX009 (ip), vehicle: saline with Tween-80",117 % of control
same,T/C,[6],122 % of control
